{
  "source": "patent US20220062479A1",
  "about": "“Disinfection Bomb” (priority 2020, published 2022)",
  "origin": "cited, not measured here",
  "key": {"Staphylococcus aureus": {"tested_on": "Staphylococcus aureus", "settings": "by way of background"}, "Streptococcus pyogenes": {"tested_on": "Streptococcus pyogenes", "settings": "by way of background"}, "Pseudomonas aeruginosa": {"tested_on": "Pseudomonas aeruginosa", "settings": "it has been shown"}, "E. coli": {"tested_on": "E. coli", "settings": "it has been shown"}},
  "data": [
    {"smiles": "CCO", "note": "[ethanol]", "values": [
      {"measurement": "contact time to kill Staphylococcus aureus", "setting": "Staphylococcus aureus", "result": "at least 10 seconds"},
      {"measurement": "contact time to kill Streptococcus pyogenes", "setting": "Streptococcus pyogenes", "result": "at least 10 seconds"},
      {"measurement": "contact time that allows the ethanol to kill Pseudomonas aeruginosa", "setting": "Pseudomonas aeruginosa", "result": 10, "unit": "s"},
      {"measurement": "contact time that allows the ethanol to kill E. coli", "setting": "E. coli", "result": 10, "unit": "s"}
    ]}
  ]
}
